From PMC8037182, “Solvothermal Synthesis of Multiple Dihydropyrimidinones at a Time as Inhibitors of Eg5” (Molecules, 2021)

Test system: Caco-2 cell line
Assay: Cytotoxicity MTS assay, Caco-2 cell line
Assay type: cell-based
Details: for OD490 Mean / OD490 Well 1 / OD490 Well 2 / OD490 Well 3: Caco-2 cell line
Method: The positive compounds (IC50 < 100 μM) obtained from the primary Eg5 motor protein ATPase assay were tested for antiproliferative activity in vitro against Caco-2 cell line, Hela cell line, L929 cell line and T24 cell line by performing MTS assay. Cells were introduced into 96-well plates at a density of 1000 cells per well. After 24 h incubation, the cells were exposed with compounds at final concentrations ranging from 0.5 to 100 µM for 24 h. DMSO was used at a final concentration of 0.025% as blank control, monastrol was used as the positive control. Then 20 µL (CellTiter 96® AQueous One Solution Promega, Madison, WI, USA) reagent was added in each well. After 2 h at 37 °C in a 80% humidified, 5% CO2 atmosphere, the absorbance at 490 nm was recorded using a microplate reader (BIO-RAD iMark^TM). The results were obtained in three independent duplicate experiments. The primary data were shown in Supplementary Materials Tables S4–S7. The IC50 values for these compounds were calculated from a non-linear regression graph plotted between the percentage of cell viability and concentration with SPSS17.0 software.

CCOC(=O)c1c(C2NC(=O)NC(C)=C2C(=O)Nc2ccccc2OC)[nH]c(C(=O)OC)c1C (stereo not shown) [D1]
OD490 Mean (0.5μM, first assay): 0.6107 | OD490 Well 1 (0.5μM, first assay): 0.5649 | OD490 Well 2 (0.5μM, first assay): 0.5391 | OD490 Well 3 (0.5μM, first assay): 0.7282 | OD490 Mean (0.5μM, second assay): 0.6066 | OD490 Well 1 (0.5μM, second assay): 0.6391 | OD490 Well 2 (0.5μM, second assay): 0.6324 | OD490 Well 3 (0.5μM, second assay): 0.5484 | OD490 Mean (0.5μM, third assay): 0.6142 | OD490 Well 1 (0.5μM, third assay): 0.6774 | OD490 Well 2 (0.5μM, third assay): 0.5749 | OD490 Well 3 (0.5μM, third assay): 0.5903 | OD490 Mean (1μM, first assay): 0.6086 | OD490 Well 1 (1μM, first assay): 0.6046 | OD490 Well 2 (1μM, first assay): 0.6209 | OD490 Well 3 (1μM, first assay): 0.6002 | OD490 Mean (1μM, second assay): 0.6031 | OD490 Well 1 (1μM, second assay): 0.6102 | OD490 Well 2 (1μM, second assay): 0.5846 | OD490 Well 3 (1μM, second assay): 0.6145 | OD490 Mean (1μM, third assay): 0.6182 | OD490 Well 1 (1μM, third assay): 0.6046 | OD490 Well 2 (1μM, third assay): 0.6112 | OD490 Well 3 (1μM, third assay): 0.6387 | OD490 Mean (10μM, first assay): 0.6584 | OD490 Well 1 (10μM, first assay): 0.6611 | OD490 Well 2 (10μM, first assay): 0.6501 | OD490 Well 3 (10μM, first assay): 0.6639 | OD490 Mean (10μM, second assay): 0.6246 | OD490 Well 1 (10μM, second assay): 0.6493 | OD490 Well 2 (10μM, second assay): 0.5502 | OD490 Well 3 (10μM, second assay): 0.6742 | OD490 Mean (10μM, third assay): 0.6177 | OD490 Well 1 (10μM, third assay): 0.6611 | OD490 Well 2 (10μM, third assay): 0.5578 | OD490 Well 3 (10μM, third assay): 0.6341 | OD490 Mean (25μM, first assay): 0.5948 | OD490 Well 1 (25μM, first assay): 0.6149 | OD490 Well 2 (25μM, first assay): 0.5791 | OD490 Well 3 (25μM, first assay): 0.5903 | OD490 Mean (25μM, second assay): 0.5865 | OD490 Well 1 (25μM, second assay): 0.5801 | OD490 Well 2 (25μM, second assay): 0.6127 | OD490 Well 3 (25μM, second assay): 0.5666 | OD490 Mean (25μM, third assay): 0.5866 | OD490 Well 1 (25μM, third assay): 0.5903 | OD490 Well 2 (25μM, third assay): 0.5721 | OD490 Well 3 (25μM, third assay): 0.5974 | OD490 Mean (50μM, first assay): 0.5045 | OD490 Well 1 (50μM, first assay): 0.5048 | OD490 Well 2 (50μM, first assay): 0.5114 | OD490 Well 3 (50μM, first assay): 0.4972 | OD490 Mean (50μM, second assay): 0.5178 | OD490 Well 1 (50μM, second assay): 0.4983 | OD490 Well 2 (50μM, second assay): 0.5020 | OD490 Well 3 (50μM, second assay): 0.5531 | OD490 Mean (50μM, third assay): 0.5361 | OD490 Well 1 (50μM, third assay): 0.6048 | OD490 Well 2 (50μM, third assay): 0.5048 | OD490 Well 3 (50μM, third assay): 0.4988 | OD490 Mean (100μM, first assay): 0.5483 | OD490 Well 1 (100μM, first assay): 0.6273 | OD490 Well 2 (100μM, first assay): 0.5214 | OD490 Well 3 (100μM, first assay): 0.4962 | OD490 Mean (100μM, second assay): 0.5031 | OD490 Well 1 (100μM, second assay): 0.5662 | OD490 Well 2 (100μM, second assay): 0.4999 | OD490 Well 3 (100μM, second assay): 0.4431 | OD490 Mean (100μM, third assay): 0.4792 | OD490 Well 1 (100μM, third assay): 0.5214 | OD490 Well 2 (100μM, third assay): 0.4347 | OD490 Well 3 (100μM, third assay): 0.4814 | IC50 (MTS assay, 24 h exposure): 108 µM
